Key:
RBL-2H3 cells = experiment: β-hexosaminidase degranulation assay, RBL-2H3 cells (Example 1); format: cell-based, rat
Description: FIGS. 1A-1F. A15 inhibits BMMC and RBL-2H3 cell degranulation. The structure of alkamide A15 is shown with different functional groups and carbons in the fatty acid chain labeled (FIG. 1A). BMMCs were plated and stimulated 4 hrs later with 1 μM A23187 and the indicated concentrations of A15 or vehicle only. The percent degranulation was measured after 1 hr (FIG. 1B). RBL-2H3 cells were treated with A23187 and the percent degranulation was determined 1 hr later (FIG. 1C) or every 10 min over a 1 hr time course (FIG. 1D). RBL-2H3 cells were plated and incubated for 4 hrs before the media was aspirated and replaced with media containing 1 μg/mL IgE anti-DNP. Cells were incubated overnight and washed prior to stimulation. […] RBL-2H3 cells were stimulated for 1 hr in Tyrode's buffer before supernatants were collected and levels of histamine were measured using a competitive inhibition EIA kit (FIG. 1F). […]
FIGS. 5A-5D. […] Percent degranulation was measured 1 hr after stimulation with 1 μM A23187 in combination with vehicle only or 25 μg/mL of the indicated E. purpurea samples. […] RBL-2H3 cells were loaded with fluo-4 AM using the Fluo-4 AM Direct™ Calcium Assay Kit and fluorescence was measured on a microplate reader. […]
RBL-2H3 cell and BMMC degranulation was measured using a β-hexosaminidase (β-hex) activity assay. […] Absorbance was read at 405 nm on a BioTek Synergy HT microplate reader. […]

[1] = test system: RAW 264.7 macrophage-like cells; experiment: Fluo-4 calcium assay, RAW 264.7 cells; format: cell-based, mouse; conditions: 1 μM A23187, 100 μM A15, at 1 min
Description: FIGS. 4A-4D. A15 inhibits A23187-stimulated calcium influx in RAW 264.7 and Jurkat cells. RAW 264.7 (FIG. 4A-4B) or Jurkat cells (FIG. 4C-4D) were loaded with fluo-4 AM using the Fluo-4 AM Direct™ Calcium Assay Kit and fluorescence was measured on a microplate reader. Cells were stimulated with 1 μM A23187 in combination with vehicle only or 100 μM A15. Bar graphs represent the means±SEM of the Δ in RFU's at 1 min post-A23187 stimulation from 3 independent experiments. Statistical analysis was performed using an unpaired Student's t-test, *p<0.05.
RBL-2H3, BMMC, RAW 264.7, or Jurkat cells were plated in clear-bottom, black, 96-well plates (BioExpress, Kaysville, Utah) and incubated overnight with media only or media containing IgE anti-DNP. […] Prior to stimulation, baseline fluorescent readings were measured from triplicate wells in 5 s intervals for 1 min using a Synergy HT microplate reader with 485/20 nm excitation and 528/20 nm emission filters. Cells were then treated with either 1 μM A23187 or 50 ng/mL DNP-BSA prepared in calcium- and magnesium-containing or calcium- and magnesium-free HBSS with 20 mM HEPES, and fluorescence was measured in 10 s intervals for 2 min. […] The average baseline fluorescence of each well was subtracted from the stimulated fluorescent values to calculate the change (Δ) in RFU's and graphed as shown.

Question: How did the degranulation (RBL-2H3 cells; RBL-2H3 cells activated by IgE anti-DNP and DNP-BSA) turn out when `CCCCCCC/C=C/C=C/C(=O)NCC(C)C` [A15, (2E,4E)-N-Isobutyldodeca-2,4-dienamide] was run?
Answer: inhibited degranulation

Question: What about the inhibition at 100 µM (RBL-2H3 cells; Rattus norvegicus, A23187-stimulated RBL-2H3 cells, 100 μM, 1 hr, read-out: inhibition of release of β-hex) of the same molecule?
Answer: 48.4%

Question: What about the “suppression of calcium influx” value [1] of the same molecule?
Answer: 60.2%
